# Source: the NIST ThermoML archive (doi:10.1021/je3013028)
# ± gives the expanded uncertainty stated by the source.
# What was measured:
# [1] = Liquid, Ebulliometric method (Recirculating still)
# [2] = refractive index (Na D-line) (dimensionless); conditions: 298.15 K; 101.33 kPa; Liquid; Standard Abbe refractometry
SMILES,refractive index [2],vapor or sublimation pressure ([1]; 308.14 K) [kPa],vapor or sublimation pressure ([1]; 335.63 K) [kPa],vapor or sublimation pressure ([1]; 336.63 K) [kPa],further results
C=CCCCC [hex-1-ene],1.3851 ± 0.0003,,,,vapor or sublimation pressure ([1]; 328.15 K): 77 ± 0.5 kPa; vapor or sublimation pressure ([1]; 335.74 K): 98.7 ± 0.6 kPa; vapor or sublimation pressure ([1]; 336.09 K): 99.8 ± 0.6 kPa
CCCS [1-propanethiol],1.4353 ± 0.0003,,,,
CC(C)(C)S [2-methyl-2-propanethiol],1.42 ± 0.00031,,,,vapor or sublimation pressure ([1]; 336.69 K): 98.5 ± 0.9 kPa
c1ccsc1 [thiophene],1.52869 ± 0.00031,16.9 ± 0.8,49.4 ± 0.8,,
CCSCC [3-thiapentane],1.43998 ± 0.00032,,,39.7 ± 0.8,
COC [dimethyl ether],,786.6 ± 3.5,1540 ± 6.2,1572.2 ± 7.7,vapor or sublimation pressure ([1]; 336.7 K): 1572.2 ± 7.7 kPa
